Assay results taken from ChEMBL document CHEMBL1201862, “PubChem BioAssay data set” (2004).
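Cultured in 96-well plates, cells were exposed to test compound for 48 hours across five concentrations. GI50 marks 50% less growth.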 Active and inactive are the calls of the source. Cut-off read from the data, not from the text of the source: active = GI50 up to about 1.1 µM and inactive = higher. Square brackets hold non-standard residues; d marks the D form. Peptide text beside a SMILES is read from it. * marks the point of attachment. X26 = COC1=CC(=O)N(C(=O)[C@@H](O*)C(C)C)[C@H]1Cc1ccccc1; NMeV = CN[C@H](C(=O)O)C(C)C; Hexanoyl = CCCCCC(=O)*

What was measured:
Test in all cases: NCI tumour cell line growth inhibition, 48 h
RPMI-8226 = system: RPMI-8226
EKVX = system: EKVX
MDA-MB-231 = system: MDA-MB-231
MOLT-4 = system: MOLT-4
MCF7 = system: MCF7
SN12C = system: SN12C
LOX IMVI = system: LOX IMVI
KM12 = system: KM12
UACC-62 = system: UACC-62
SF-268 = system: SF-268
SK-MEL-2 = system: SK-MEL-2
DU-145 = system: DU-145
Hs-578T = system: Hs-578T
SW-620 = system: SW-620
HL-60 = system: HL-60
SF-539 = system: SF-539
T47D = system: T47D
UO-31 = system: UO-31
A549 = system: A549
SR = system: SR

Measured: GI50

CCCCCC(=O)N[C@H](C(=O)N[C@H](C(=O)N(C)[C@H](C(=O)N1CCC[C@H]1C(=O)N1CCC[C@H]1C(=O)O[C@H](C(=O)N1C(=O)C=C(OC)[C@@H]1Cc1ccccc1)C(C)C)C(C)C)C(C)C)C(C)C (Hexanoyl-VV[NMeV]PP-X26)
inactive: RPMI-8226 84.1 µM | EKVX 85.9 µM | MDA-MB-231 34.2 µM | MOLT-4 63 µM | MCF7 59.2 µM | SN12C 94.6 µM | LOX IMVI > 100 µM | KM12 > 100 µM | UACC-62 82.6 µM | SF-268 > 100 µM | SK-MEL-2 36.3 µM | DU-145 > 100 µM | Hs-578T 68.2 µM | SW-620 > 100 µM | HL-60 > 100 µM | SF-539 36.9 µM | T47D > 100 µM | UO-31 40 µM

Nc1ccccc1N/C=C\C(=O)C(Cl)(Cl)Cl
inactive: RPMI-8226 14.3 µM | EKVX 15 µM | MDA-MB-231 47.1 µM | MOLT-4 11 µM | MCF7 14.5 µM | A549 67.3 µM | SN12C 19 µM | LOX IMVI 15.9 µM | KM12 15.5 µM | UACC-62 17.5 µM | SF-268 40.3 µM | SK-MEL-2 24.5 µM | DU-145 26.7 µM | Hs-578T 48.8 µM | SW-620 16.7 µM | HL-60 22.3 µM | SF-539 28.4 µM | T47D 18.6 µM | UO-31 19.2 µM

Nc1ccccc1/N=N/c1c(S(=O)(=O)O)cc2cc(S(=O)(=O)O)cc(O)c2c1O
inactive: RPMI-8226 > 100 µM | EKVX > 100 µM | MDA-MB-231 > 100 µM | MOLT-4 > 100 µM | MCF7 > 100 µM | A549 > 100 µM | SN12C 11.2 µM | LOX IMVI > 100 µM | KM12 > 100 µM | UACC-62 > 100 µM | SF-268 > 100 µM | DU-145 > 100 µM | SR > 100 µM | Hs-578T > 100 µM | SW-620 > 100 µM | T47D > 100 µM | UO-31 > 100 µM

O=C(COc1ccc(OCC(=O)N2C(=O)CC/C2=N\c2ccc(Cl)cc2)cc1)N1C(=O)CS/C1=N\c1ccc(Cl)cc1
inactive: RPMI-8226 46.1 µM | EKVX 76.9 µM | MDA-MB-231 26.9 µM | MCF7 35.3 µM | A549 26.4 µM | SN12C > 100 µM | LOX IMVI 25.2 µM | KM12 75.2 µM | UACC-62 > 100 µM | SF-268 > 100 µM | SK-MEL-2 > 100 µM | DU-145 > 100 µM | Hs-578T > 100 µM | SW-620 > 100 µM | HL-60 37.2 µM | T47D 14.2 µM | UO-31 37.2 µM

Nc1nc(Cl)nc2c1ncn2C1CCC(COP(=O)(O)OP(=O)(O)OP(=O)(O)O)O1 (stereo not drawn)
inactive: EKVX 40.1 µM | MDA-MB-231 26.8 µM | MOLT-4 65 µM | MCF7 29.4 µM | A549 32.7 µM | SN12C 38.8 µM | LOX IMVI 28.3 µM | KM12 32.4 µM | UACC-62 18.1 µM | SF-268 47.9 µM | DU-145 23.3 µM | SR 23.1 µM | Hs-578T 29.7 µM | SW-620 32.4 µM | HL-60 28.5 µM | SF-539 67.3 µM | T47D 23.8 µM | UO-31 12.7 µM

CC1CC2OC(=N)C1(C#N)C2(C#N)C#N (stereo not drawn)
inactive: RPMI-8226 16.4 µM | EKVX 16.6 µM | MDA-MB-231 17.2 µM | MOLT-4 24.7 µM | MCF7 28 µM | A549 > 100 µM | SN12C 19.5 µM | LOX IMVI 14.7 µM | KM12 39.3 µM | UACC-62 23.4 µM | SF-268 21.8 µM | SK-MEL-2 20.3 µM | DU-145 56.6 µM | SR 25.3 µM | Hs-578T 33.8 µM | SW-620 18.2 µM | SF-539 22.5 µM | T47D 25.9 µM | UO-31 24.5 µM

OCC1OC(n2cnc3c(Cl)nc(Nc4ccc(Cl)c(Cl)c4)nc32)CC1O (stereo not drawn)
inactive: RPMI-8226 8.13 µM | EKVX 9.98 µM | MDA-MB-231 11.8 µM | MOLT-4 5.02 µM | MCF7 11 µM | A549 14.2 µM | SN12C 10.5 µM | LOX IMVI 7.78 µM | KM12 8.83 µM | UACC-62 8.73 µM | SF-268 12.7 µM | SK-MEL-2 9.53 µM | DU-145 11.6 µM | Hs-578T 13.2 µM | SW-620 11.9 µM | HL-60 7.05 µM | T47D 13.3 µM | UO-31 11.6 µM

CC1=N[C@@](C)(C2CC3C=CC2C3=O)COC1=O (stereo partly drawn)
inactive: EKVX > 100 µM | MDA-MB-231 > 100 µM | MOLT-4 > 100 µM | MCF7 > 100 µM | A549 > 100 µM | SN12C > 100 µM | KM12 > 100 µM | UACC-62 > 100 µM | SF-268 > 100 µM | DU-145 > 100 µM | SR > 100 µM | Hs-578T > 100 µM | SW-620 > 100 µM | HL-60 > 100 µM | SF-539 > 100 µM | T47D > 100 µM | UO-31 > 100 µM
